According to patent publication US12319655B2, “RAF kinase inhibitors and methods of use thereof” (Deciphera Pharmaceuticals, LLC, priority 2021, dated 2025):

System: Miapaca-2 cells
Test: MiaPaca-2 Combination Cell proliferation Assay (1) with cobimetinib
Type: cell-based
Settings: MiaPaca-2 cell proliferation, read-out: MiaPaca-2 Combo (1) IC50

| IC50 [nM] | SMILES |
| --- | --- |
| ≤ 100 | CC(=O)Nc1cc(-c2cc(-c3cc(NC(=O)c4ccnc(C(F)(F)F)c4)ccc3C)cc(OCCO)n2)ccn1 [Example 1, N-(3-(2′-acetamido-6-(2-hydroxyethoxy)-[2,4′-bipyridin]-4-yl)-4-methylphenyl)-2-(trifluoromethyl)isonicotinamide] |
| ≤ 100 | CC(=O)Nc1cc(-c2cc(-c3cc(NC(=O)c4ccnc(C(F)(F)F)c4)c(F)cc3C)ccn2)ccn1 [Example 2] |
| 100 to 500 | Cc1ccc(NC(=O)c2ccnc(C(F)(F)F)c2)cc1-c1ccnc(-c2ccnc(NC(=O)CC#N)c2)c1 [Example 39, N-(3-(2′-(2-cyanoacetamido)-[2,4′-bipyridin]-4-yl)-4-methylphenyl)-2-(trifluoromethyl)isonicotinamide] |
| ≤ 100 | CC(=O)Nc1cc(-c2cc(-c3cc(NC(=O)c4ccnc(C(F)(F)F)c4)ccc3C)nc(N(C)C)n2)ccn1 [Example 41, N-(3-(6-(2-acetamidopyridin-4-yl)-2-(dimethylamino)pyrimidin-4-yl)-4-methylphenyl)-2-(trifluoromethyl)isonicotinamide] |
| 100 to 500 | Cc1ccc(NC(=O)c2ccnc(C(C)(C)C#N)c2)cc1-c1cncc(-c2ccnc3c2CC(=O)N3)n1 [Example 43] |
| 100 to 500 | CNC(=O)c1cc(-c2cncc(-c3cc(NC(=O)c4ccnc(C(F)(F)F)c4)ccc3C)n2)ccn1 [Example 47] |
| ≤ 100 | CNC(=O)c1cc(-c2cc(-c3cc(NC(=O)c4ccnc(C(F)F)c4)ccc3C)ccn2)ccn1 [Example 48] |
| ≤ 100 | CNC(=O)c1cc(-c2cc(-c3cc(NC(=O)c4ccnc(C(C)(C)C#N)c4)ccc3C)ccn2)ccn1 [Example 50] |
| ≤ 100 | Cc1ccc(NC(=O)c2ccnc(C(F)(F)F)c2)cc1-c1ccnc(-c2ccnc(NC(=O)C3CC3)c2)c1 [Example 54] |
| ≤ 100 | COCC(=O)Nc1cc(-c2cc(-c3cc(NC(=O)c4ccnc(C(C)(C)C#N)c4)ccc3C)ccn2)ccn1 [Example 61] |
| 100 to 500 | Cc1ccc(NC(=O)c2ccnc(C(F)(F)F)c2)cc1-c1cccc(-c2ccnc(NC(=O)CC#N)c2)c1 [Example 62] |
| 100 to 500 | Cc1ccc(NC(=O)c2ccnc(C(C)(C)C#N)c2)cc1-c1ccnc(-c2ccnc(NC(=O)CC#N)c2)c1 [Example 63] |
| ≤ 100 | CCOc1ncc(-c2cc(NC(=O)c3ccnc(C(F)(F)F)c3)ccc2C)cc1-c1ccnc(NC(C)=O)c1 [Example 68] |
| ≤ 100 | CNC(=O)c1cc(-c2cc(-c3cc(C(=O)Nc4ccnc(C(C)(C)C#N)c4)ccc3C)ccn2)ccn1 [Example 74] |
| ≤ 100 | Cc1ccc(NC(=O)c2ccnc(C(C)(C)C#N)c2)cc1-c1cccc(-c2cc(NC(=O)C3CC3)ncn2)c1 [Example 77] |
| ≤ 100 | CNC(=O)c1cc(-c2nccc(-c3cc(NC(=O)c4ccnc(C(C)(C)C#N)c4)ccc3C)n2)ccn1 [Example 78] |
| ≤ 100 | CC(=O)Nc1cc(-c2cccc(-c3cc(NC(=O)c4ccnc(C(C)(C)C#N)c4)ccc3C)c2)ncn1 [Example 79] |
| ≤ 100 | Cc1ccc(NC(=O)c2ccnc(C(F)(F)F)c2)cc1-c1cccc(-c2cc(NC(=O)C3CC3)ncn2)c1 [Example 80] |
| ≤ 100 | CNC(=O)c1cc(-c2cncc(-c3cc(NC(=O)c4ccnc(C(C)(C)C#N)c4)ccc3C)n2)ccn1 [Example 86] |
| ≤ 100 | COCC(=O)Nc1cc(-c2nccc(-c3cc(NC(=O)c4ccnc(C(C)(C)C#N)c4)ccc3C)n2)ccn1 [Example 88] |
| ≤ 100 | CC(=O)Nc1cc(-c2cc(-c3cc(NC(=O)c4ccnc(C(C)(C)C#N)c4)ccc3C)nc(C)n2)ccn1 [Example 89] |
| 1000 to 10000 | Cc1ccc(NC(=O)c2ccnc(C(C)(C)F)c2)cc1-c1cncc(-c2cc(NC(=O)C3CC3)ncn2)c1 [Example 394] |

System: WM3629 cells
Test: WM3629 Cell Proliferation Assay (1)
Type: cell-based
Settings: not given

| SMILES | IC50 [nM] |
| --- | --- |
| CNC(=O)c1cc(-c2cc(-c3cc(NC(=O)c4cccc(C(F)(F)F)c4)cnc3C)ccn2)ccn1 [Example 52] | ≤ 100 |
| CCOc1ncc(-c2cc(NC(=O)c3ccnc(C(F)(F)F)c3)ccc2C)cc1-c1ccnc(C(=O)NC)c1 [Example 69] | ≤ 100 |
| Cc1ccc(NC(=O)c2ccnc(C(C)(C)C#N)c2)cc1-c1cccc(-c2cc(NC(=O)C3CC3)ncn2)c1 [Example 77] | ≤ 100 |
| Cc1ccc(NC(=O)c2ccnc(C(F)(F)F)c2)cc1-c1cccc(-c2cc(NC(=O)C3CC3)ncn2)c1 [Example 80] | ≤ 100 |
| Cc1ccc(NC(=O)c2ccnc(C(C)(C)F)c2)cc1-c1cncc(-c2cc(NC(=O)C3CC3)ncn2)c1 [Example 394] | ≤ 100 |
| Cc1ccc(NC(=O)c2ccnc(C3(C#N)CC3)c2)cc1-c1cncc(-c2cc(NC(=O)C3CC3)ncn2)c1 [Example 395] | ≤ 100 |
| Cc1ccc(NC(=O)c2ccnc(C(F)(F)F)c2)cc1-c1cncc(-c2cc(NC(=O)C3CC3)ncn2)c1 [Example 397] | ≤ 100 |
